Measurements from patent publication US20060205733A1, “Endothelin a receptor antagonists in combination with phosphodiesterase 5 inhibitors and uses thereof” (Encysive Pharmaceuticals, priority 2004, published 2006).
Where a name gives a salt, the structure may show the parent alone. Read-outs that look alike come from different tables or passages of the source. Values belong to the molecule of their own block, whether it stands above or below them.

Legend:
[1] = target: T1, ETB (Homo sapiens, UniProt P24530); conditions: read-out: Binding K1 (nM) to ETB; cited from earlier work
T1 sequence (P24530 27-442): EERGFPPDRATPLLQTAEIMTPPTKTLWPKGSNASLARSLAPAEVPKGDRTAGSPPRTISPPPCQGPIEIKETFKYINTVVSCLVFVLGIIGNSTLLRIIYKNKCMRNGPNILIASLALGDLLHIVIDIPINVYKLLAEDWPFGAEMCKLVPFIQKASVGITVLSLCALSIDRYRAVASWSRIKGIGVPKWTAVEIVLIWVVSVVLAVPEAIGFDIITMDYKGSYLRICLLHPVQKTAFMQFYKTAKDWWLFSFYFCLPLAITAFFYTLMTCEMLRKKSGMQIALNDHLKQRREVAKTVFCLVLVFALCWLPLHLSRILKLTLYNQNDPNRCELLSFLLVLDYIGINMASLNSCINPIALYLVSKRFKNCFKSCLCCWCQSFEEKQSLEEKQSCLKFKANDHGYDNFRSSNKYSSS

[2] = in vivo; cited from earlier work
[3] = target: bile salt export pump (Homo sapiens, UniProt O95342); conditions: cited from earlier work
Sequence of bile salt export pump (O95342 whole entry): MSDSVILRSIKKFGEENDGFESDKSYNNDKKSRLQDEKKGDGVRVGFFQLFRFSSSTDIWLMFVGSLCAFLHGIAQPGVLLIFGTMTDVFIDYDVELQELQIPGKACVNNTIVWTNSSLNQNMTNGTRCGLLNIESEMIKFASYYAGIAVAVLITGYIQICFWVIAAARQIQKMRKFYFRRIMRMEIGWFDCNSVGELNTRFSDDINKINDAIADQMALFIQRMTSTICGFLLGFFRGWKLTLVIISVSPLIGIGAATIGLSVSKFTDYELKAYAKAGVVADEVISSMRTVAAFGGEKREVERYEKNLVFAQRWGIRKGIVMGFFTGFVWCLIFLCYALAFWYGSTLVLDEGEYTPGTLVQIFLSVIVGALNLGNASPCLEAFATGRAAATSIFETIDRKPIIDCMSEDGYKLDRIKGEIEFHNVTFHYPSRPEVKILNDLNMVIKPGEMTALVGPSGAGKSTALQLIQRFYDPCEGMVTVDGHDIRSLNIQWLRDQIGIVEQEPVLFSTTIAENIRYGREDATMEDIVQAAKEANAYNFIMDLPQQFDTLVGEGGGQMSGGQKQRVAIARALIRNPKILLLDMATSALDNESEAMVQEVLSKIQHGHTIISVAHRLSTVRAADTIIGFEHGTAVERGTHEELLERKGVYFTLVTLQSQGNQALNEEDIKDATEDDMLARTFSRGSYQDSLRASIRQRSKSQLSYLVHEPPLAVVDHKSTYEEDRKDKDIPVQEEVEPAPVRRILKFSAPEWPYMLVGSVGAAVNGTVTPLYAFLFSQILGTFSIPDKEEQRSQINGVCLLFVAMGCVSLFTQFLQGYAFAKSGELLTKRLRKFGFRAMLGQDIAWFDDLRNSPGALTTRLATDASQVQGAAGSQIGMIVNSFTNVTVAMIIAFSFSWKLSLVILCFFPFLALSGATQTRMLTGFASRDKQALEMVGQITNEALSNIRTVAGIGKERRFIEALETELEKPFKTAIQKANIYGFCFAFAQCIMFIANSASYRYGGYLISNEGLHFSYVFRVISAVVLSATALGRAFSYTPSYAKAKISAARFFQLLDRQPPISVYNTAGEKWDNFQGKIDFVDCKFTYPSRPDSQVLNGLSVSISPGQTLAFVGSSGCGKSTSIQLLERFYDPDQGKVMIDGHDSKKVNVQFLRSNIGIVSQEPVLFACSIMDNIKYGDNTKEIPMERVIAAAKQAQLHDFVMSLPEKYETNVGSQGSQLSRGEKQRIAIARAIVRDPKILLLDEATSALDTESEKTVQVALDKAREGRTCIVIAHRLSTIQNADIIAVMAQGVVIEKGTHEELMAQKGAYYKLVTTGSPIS

[4] = test system: cytochrome P450 enzymes; conditions: in vivo; cited from earlier work
[5] = target: T2, ETA (Homo sapiens, UniProt P25101); conditions: cited from earlier work; for Selectivity: ETA versus ETB, Table 2
T2 sequence (P25101 21-427): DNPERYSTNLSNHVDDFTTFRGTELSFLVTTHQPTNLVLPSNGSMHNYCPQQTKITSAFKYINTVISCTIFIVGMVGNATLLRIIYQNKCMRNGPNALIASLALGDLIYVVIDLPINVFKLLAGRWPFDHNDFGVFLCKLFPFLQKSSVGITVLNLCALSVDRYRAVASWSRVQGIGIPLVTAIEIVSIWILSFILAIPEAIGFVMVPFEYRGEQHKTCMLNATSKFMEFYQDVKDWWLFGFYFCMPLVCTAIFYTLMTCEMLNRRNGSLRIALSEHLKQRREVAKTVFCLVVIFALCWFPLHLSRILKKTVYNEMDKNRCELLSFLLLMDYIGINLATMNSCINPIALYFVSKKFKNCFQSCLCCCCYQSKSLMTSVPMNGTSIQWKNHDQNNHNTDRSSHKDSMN

[6] = Pharmacokinetic drug interaction study, sitaxsentan and sildenafil; assay type: in vivo, human; conditions: for Cmax: healthy subjects; for Cmax / AUC0-t / AUC∞ / CL/F / t½ / λz / AUC(0-inf) / Vd/F / half-life: mean ± SD; for Tmax: median; for Vd/F: read-out: Vz/F; for half-life: read-out: t½ (converted); for Effect of sildenafil administration on sitaxsentan levels / pharmacokinetics: single 100 mg sildenafil on day 7 of 100 mg sitaxsentan daily
Protocol: A pharmacokinetic drug interaction study was performed using 24 individuals. In the study, a group of 24 normal, healthy volunteers participated in two treatment periods. […] During the other treatment period, the subjects received placebo for seven days and 100 mg of VIAGRA on the seventh day. Twelve subjects were randomly assigned to each treatment period. When the subjects finished one treatment period, they were switched to the other treatment period.
Samples were drawn (in duplicate) once on days 1, 3, 5 and 6; 15 times on day 7 and once again on day 8 for each treatment period. The samples were stored at a nominal temperature of −20° C. for a duration not exceeding 38 days. All samples were analyzed with a set of calibration standards and low, medium and high concentration Quality Control samples.

[7] = in vivo; cited from earlier work; remark: listed apart in the source
[8] = target: T2, ETA; conditions: cited from earlier work
[9] = target: T3, cytochrome P450 3A4 (Homo sapiens, UniProt P08684); test: Cytochrome P450 3A4 inhibition in cultured hepatocytes; assay type: in vitro ADME
T3 construct: endogenous in cells; host or cells: cultured hepatocytes
T3 sequence (P08684 whole entry): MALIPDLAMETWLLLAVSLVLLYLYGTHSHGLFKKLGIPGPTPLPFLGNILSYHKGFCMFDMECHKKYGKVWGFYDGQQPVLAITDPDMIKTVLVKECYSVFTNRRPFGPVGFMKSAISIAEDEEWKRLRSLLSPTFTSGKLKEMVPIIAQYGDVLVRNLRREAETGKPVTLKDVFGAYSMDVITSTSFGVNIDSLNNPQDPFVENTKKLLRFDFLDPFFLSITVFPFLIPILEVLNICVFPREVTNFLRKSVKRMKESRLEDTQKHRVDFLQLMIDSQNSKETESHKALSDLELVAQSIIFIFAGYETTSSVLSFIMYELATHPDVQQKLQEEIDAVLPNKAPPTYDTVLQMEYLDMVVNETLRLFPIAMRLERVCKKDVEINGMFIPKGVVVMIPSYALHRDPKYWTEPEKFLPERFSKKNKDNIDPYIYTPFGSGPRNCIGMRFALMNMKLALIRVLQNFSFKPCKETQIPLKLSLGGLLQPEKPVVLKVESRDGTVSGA

[10] = in vivo; cited from earlier work; remark: listed apart in the source
[11] = target: T1, ETB; conditions: concentrations up to 100 μM; cited from earlier work
[12] = target: T4, ETA (Sus scrofa, UniProt Q29010); conditions: read-out: IC50, inhibition of 125I-labeled endothelin-1 binding, cited from earlier work
T4 construct: from tissue; host or cells: aortic smooth muscle, ventricle membranes, cultured aortic smooth muscle cells
T4 sequence (Q29010 21-427): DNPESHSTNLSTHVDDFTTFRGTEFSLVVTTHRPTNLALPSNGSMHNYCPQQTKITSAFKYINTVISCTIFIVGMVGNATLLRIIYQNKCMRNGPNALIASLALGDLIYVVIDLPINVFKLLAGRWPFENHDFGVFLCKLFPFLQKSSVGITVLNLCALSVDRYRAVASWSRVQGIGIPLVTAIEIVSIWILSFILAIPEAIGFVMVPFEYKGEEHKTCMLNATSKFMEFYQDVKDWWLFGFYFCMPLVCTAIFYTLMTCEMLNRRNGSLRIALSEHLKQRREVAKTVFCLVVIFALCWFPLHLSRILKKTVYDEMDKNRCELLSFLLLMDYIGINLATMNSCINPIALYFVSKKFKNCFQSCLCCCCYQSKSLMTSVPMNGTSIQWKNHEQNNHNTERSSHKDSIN

[13] = read-out: Binding K1 (nM) to ETA
[14] = single 100 mg oral sildenafil after 100 mg sitaxsentan daily for seven days
[15] = single 100 mg oral sildenafil after placebo daily for seven days
[16] = sitaxsentan versus placebo pretreatment, natural log-transformed data
[17] = human, plasma, po, 100 mg, single 100 mg oral sildenafil after 100 mg sitaxsentan daily for seven days
[18] = human, plasma, po, 100 mg, single 100 mg oral sildenafil after placebo daily for seven days

Molecule: Cc1noc(NS(=O)(=O)c2cccc3c(N(C)C)cccc23)c1C [BMS-182874]
Ki [1]: > 50000 nM

Molecule: COc1ccccc1Oc1c(NS(=O)(=O)c2ccc(C(C)(C)C)cc2)nc(-c2ncccn2)nc1OCCO [Bosentan]
Metabolism [2]: Through 3A4 and 2C9
Route of elimination [2]: Hepatic
t1/2 [2]: 5 h
Effect on bile salt [3]: Inhibits bile salt
Induction of cytochrome P450 enzymes [4]: Causes inhibition,

Molecule: CCCCc1ccc2c(n1)[C@@H](c1ccc(OC)cc1C[C@H](C)C(=O)O)[C@H](C(=O)O)[C@H]2c1ccc2c(c1)OCO2 [J-104132]
Ki [1]: 0.1 nM
Selectivity [5]: 2.9
Ki [5, 13]: 0.034 nM

Molecule: COc1cc(OC)nc(O[C@H](C(=O)O)C(OC)(c2ccccc2)c2ccccc2)n1 [LU-135252]
Ki [1]: 184 nM
Selectivity [5]: 130
Ki [5, 13]: 1.4 nM

Effect of sitaxsentan on levels of the active metabolite ([6]; in the presence of sitaxsentan): No effects
Cmax [6, 14]: 104 ± 40.8 ng/mL
AUC0-t [6, 14]: 389 ± 105 ng·h/mL
AUC∞ [6, 14]: 425 ± 115 ng·h/mL
CL/F [6, 14]: 529 ± 164 mL/min
t½ [6, 14]: 5.14 ± 2.13 h
λz [6, 14]: 0.1544 ± 0.0552 h⁻¹
Tmax [6, 14]: 1.00 h
Cmax [6, 15]: 109 ± 53.1 ng/mL
AUC0-t [6, 15]: 372 ± 107 ng·h/mL
AUC∞ [6, 15]: 440 ± 112 ng·h/mL
CL/F [6, 15]: 524 ± 234 mL/min
t½ [6, 15]: 05.1 ± 1.63 h
λz [6, 15]: 0.1506 ± 0.0569 h⁻¹
Tmax [6, 15]: 1.00 h
AUC0-t, geometric mean ratio (%) estimate [6, 16]: 112.43%
AUC∞, geometric mean ratio (%) estimate [6, 16]: 105.78%
CL/F, geometric mean ratio (%) estimate [6, 16]: 88.95%
Cmax, geometric mean ratio (%) estimate [6, 16]: 100.70%
Vz/F, geometric mean ratio (%) estimate [6, 16]: 94.89%
Molecule: CCCc1nn(C)c2c(=O)[nH]c(-c3cc(S(=O)(=O)N4CCNCC4)ccc3OCC)nc12 [N-Desmethyl Sildenafil]

Molecule: COc1ccccc1Oc1c(NS(=O)(=O)c2ccc(C)cn2)nc(-c2ccnc(-c3nnn[nH]3)c2)nc1OCCO [Ro-61.1790]
Ki [1]: > 130 nM
Selectivity [5]: 1000
Ki [5, 13]: 0.13 nM

Molecule: CC1(C)CC[C@]2(C(=O)[O-])CC[C@]3(COC(=O)/C=C/c4cc([O-])ccc4NC(=O)/C=C/C(=O)O)C(=CC[C@@H]4[C@@]5(C)CCC(=O)C(C)(C)[C@@H]5CC[C@]43C)[C@@H]2C1.[Na+].[Na+] [S-0139]
Ki [1]: 1000 nM
Selectivity [5]: 1000
Ki [5, 13]: 1 nM

Molecule: CCCOc1ccc2c(c1)[C@@H](c1ccc(OC)cc1OCC(=O)O)[C@H](C(=O)O)[C@H]2c1ccc2c(c1)OCO2 [SB-209670]
Selectivity [5]: 90

Molecule: CCCOc1ccc2c(c1)[C@@H](c1ccc(OC)cc1OCCO)[C@H](C(=O)O)[C@H]2c1ccc2c(c1)OCO2 [SB-217242]
Selectivity [5]: 101

Cmax ([6]; human, plasma, po, 100 mg, single 100 mg oral sildenafil after 100 mg sitaxsentan daily for seven days, read-out: Cmax): 440 ± 232 ng/mL
AUC(0-inf) [6, 17]: 1650 ng·h/mL
AUC0-t ([6]; human, plasma, po, 100 mg, single 100 mg oral sildenafil after 100 mg sitaxsentan daily for seven days, read-out: AUC0-t): 1580 ng·h/mL
Vd/F [6, 17]: 34.8 ± 11.5 L
half-life [6, 17]: 2.82 ± 0.45 h
Tmax ([6]; human, plasma, po, 100 mg, single 100 mg oral sildenafil after 100 mg sitaxsentan daily for seven days, read-out: Tmax): 1.25 h
Cmax ([6]; human, plasma, po, 100 mg, single 100 mg oral sildenafil after placebo daily for seven days, read-out: Cmax): 377 ± 208 ng/mL
AUC(0-inf) [6, 18]: 1300 ng·h/mL
AUC0-t ([6]; human, plasma, po, 100 mg, single 100 mg oral sildenafil after placebo daily for seven days, read-out: AUC0-t): 1220 ng·h/mL
Vd/F [6, 18]: 43.6 ± 18.9 L
half-life [6, 18]: 2.76 ± 0.45 h
Tmax ([6]; human, plasma, po, 100 mg, single 100 mg oral sildenafil after placebo daily for seven days, read-out: Tmax): 1 h
Increase of AUC∞ (area under the plasma concentration/time curve) ([6]; in the presence of sitaxsentan): 28%
Increase of Cmax (maximum concentration) ([6]; in the presence of sitaxsentan): 18%
CL/F [6, 14]: 147 ± 56.4 mL/min
λz [6, 14]: 0.2514 ± 0.0364 h⁻¹
CL/F [6, 15]: 184 ± 69.0 mL/min
λz [6, 15]: 0.2584 ± 0.0444 h⁻¹
Molecule: CCCc1nn(C)c2c(=O)[nH]c(-c3cc(S(=O)(=O)N4CCN(C)CC4)ccc3OCC)nc12 [Sildenafil, 1-[[3-(6,7-dihydro-1-methyl-7-oxo-3-propyl-1H-pyrazolo[4,3-d]pyrimidin-5-yl)-4-ethoxyphenyl]sulfonyl]-4-methylpiperazine citrate]

Effect of sildenafil administration on sitaxsentan levels / pharmacokinetics ([6]; listed as sitaxsentan): did not alter sitaxsentan levels
Molecule: Cc1cc2c(cc1CC(=O)c1sccc1S(=O)(=O)Nc1onc(C)c1Cl)OCO2 [Sitaxsentan]
Metabolism [2]: Through 3A4 and 2C9
t1/2 [2]: 10 h
Effect on bile salt [3]: Does not accumulate
Effect on bilirubin [7]: No effect.
Selectivity for ETA:ETB ([8]; Table 4): 6500
ETA:ETB selectivity ratio ([8]; based upon in vitro receptor affinity ratios): 6500
Ki ([8]; read-out: Intrinsic potency to ETA (Ki)): 0.45 nM
Ki [1]: > 4300 nM
Induction of cytochrome P450 enzymes [4]: No induction
Selectivity [5]: 10,000

Molecule: Cc1ccc(-c2c(NS(=O)(=O)c3ccc(C(C)(C)CO)cc3)ncnc2OCCOc2ncc(Br)cn2)cc1 [T-0201]
Ki [5, 13]: 0.015 nM

Cytochrome P450 3A4 inhibition [9]: weak
Effect of sildenafil administration on sitaxsentan levels / pharmacokinetics [6]: does not appear to impact
Molecule: Cc1cc2c(cc1CC(=O)c1sccc1S(=O)(=O)Nc1onc(C)c1Cl)OCO2 [THELIN]
Selectivity as an antagonist for ETA compared to ETB [8]: approximately 6,500 fold
Side effects [10]: liver dysfunction (increased ALT and AST), headache, edema, constipation, nasal congestion and flushing

Molecule: COc1nc(C)cnc1NS(=O)(=O)c1cccnc1-c1ccc(CC(C)(C)C(=O)O)cc1 [ZD-1811]
Ki [1]: > 2000 nM
Selectivity [5]: 1500
Ki ([5]; estimated from the IC∞ value, read-out: Binding K1 (nM) to ETA, K1 estimated from the IC∞ value): 1.3 nM

Molecule: FR-139317
Ki [1]: 7300 nM

Molecule: cyclo(D-Glu-L-Ala-allo-D-Ile-L-Leu-D-Trp) [BE-18257B]
Inhibition of binding to receptors in tissues in which ETB predominates [11]: fails to inhibit binding
IC50 ([12]; aortic smooth muscle): 1400 nM
IC50 ([12]; cultured aortic smooth muscle cells): 500 nM
IC50 ([12]; ventricle membranes): 800 nM
